The test system of experiment [1] is Mus musculus. The experiment in a line: Compound was tested for inhibitory activity in oral mouse cholesterol biosynthesis assay at the dose of 24 mg/Kg. It is filed as functional.
The species named for experiment [2] is Mus musculus. The experiment in a line: Compound was tested for inhibitory activity in oral mouse cholesterol biosynthesis assay. It is filed as functional.
The test system of experiment [3] is Mus musculus. The experiment can be described thus: Compound was tested for inhibitory activity in oral mouse cholesterol biosynthesis assay at the dose of 40 mg/Kg. It is filed as functional.
The subject of experiment [4] is Mus musculus. The experiment in a line: Compound was tested for inhibitory activity in oral mouse cholesterol biosynthesis assay at the dose of 24 mg/Kg; NA means not active. Type of experiment: functional, organism-based.
For experiment [5], the system named is Mus musculus. The experiment in a line: Compound was tested for inhibitory activity in oral mouse cholesterol biosynthesis assay at the dose of 6 mg/Kg. Type of experiment: functional.

Molecules are shown by their SMILES. Calls of active or inactive are those of the source. The calls are words filed in the database; no cut-off is given here.

What is called inhibition in vivo is the change of the read-out against control, counted positive when it falls. On to `C=C(CCC12OC(C(=O)OCCC(C)C)C(O)(C(=O)OCC(=O)N(CC)CC)C(C(=O)O)(O1)[C@H](OC(=O)/C=C/[C@@H](C)C[C@@H](C)CC)[C@H]2O)[C@@H](OC(C)=O)[C@H](C)Cc1ccccc1` (some centres undefined), for which the inhibition in vivo at 24 mg/kg in experiment [1] stood at 15%.
The term ED50 denotes the dose that gives a 50% effect, or the effect in half of the subjects. In experiment [2], `C=C(CCC12OC(C(=O)OCCC(C)C)C(O)(C(=O)OCOC(C)=O)C(C(=O)O)(O1)[C@H](OC(=O)/C=C/[C@@H](C)C[C@@H](C)CC)[C@H]2O)[C@@H](OC(C)=O)[C@H](C)Cc1ccccc1` (some centres undefined) yielded a median effective dose (ED50) of 6 mg/kg.
For `C=C(CCC12OC(C(=O)OCCC(C)C)C(O)(C(=O)O)C(C(=O)O)(O1)[C@H](OC(=O)/C=C/[C@@H](C)C[C@@H](C)CC)[C@H]2O)[C@@H](OC(C)=O)[C@H](C)Cc1ccccc1` (some centres undefined), in experiment [3], the inhibition in vivo at 40 mg/kg came out at 61%.
The molecule `C=CCOC(=O)C1(O)C(C(=O)OCCC(C)C)OC2(CCC(=C)[C@@H](OC(C)=O)[C@H](C)Cc3ccccc3)OC1(C(=O)O)[C@H](OC(=O)/C=C/[C@@H](C)C[C@@H](C)CC)[C@H]2O` (some centres undefined) had an inhibition in vivo at 24 mg/kg in experiment [1] of 38%.
As to `C=C(CCC12OC(C(=O)OCCC(C)C)C(O)(C(=O)OCC(=O)c3ccc(Br)cc3)C(C(=O)O)(O1)[C@H](OC(=O)/C=C/[C@@H](C)C[C@@H](C)CC)[C@H]2O)[C@@H](OC(C)=O)[C@H](C)Cc1ccccc1` (some centres undefined), the inhibition in vivo at 24 mg/kg in experiment [1] came to 7%.
With `C=C(CCC12OC(C(=O)O)C(O)(C(=O)O)C(C(=O)O)(O1)[C@H](OC(=O)/C=C/[C@@H](C)C[C@@H](C)CC)[C@H]2O)[C@@H](OC(C)=O)[C@H](C)Cc1ccccc1` (some centres undefined) [ZARAGOZIC ACID A], the 50% effective dose (ED50) in experiment [2] was determined as 100 mg/kg.
Turning to `C=C(CCC12OC(C(=O)OCCC(C)C)C(O)(C(=O)O)C(C(=O)OCc3ccccc3)(O1)[C@H](OC(=O)/C=C/[C@@H](C)C[C@@H](C)CC)[C@H]2O)[C@@H](OC(C)=O)[C@H](C)Cc1ccccc1` (some centres undefined), the inhibition result in experiment [4] is “inactive”.
Regarding `C=C(CCC12OC(C(=O)OCCC(C)C)C(O)(C(=O)OCC)C(C(=O)O)(O1)[C@H](OC(=O)/C=C/[C@@H](C)C[C@@H](C)CC)[C@H]2O)[C@@H](OC(C)=O)[C@H](C)Cc1ccccc1` (some centres undefined), the inhibition in vivo at 24 mg/kg in experiment [1] was determined as 59%.
Take `C=C(CCC12OC(C(=O)OCCC(C)C)C(O)(C(=O)O)C(C(=O)OCOC(C)=O)(O1)[C@H](OC(=O)/C=C/[C@@H](C)C[C@@H](C)CC)[C@H]2O)[C@@H](OC(C)=O)[C@H](C)Cc1ccccc1` (some centres undefined): in experiment [5], the inhibition in vivo at 6 mg/kg turned out to be 13%.
In turn, `C=C(CCC12OC(C(=O)OCCC(C)C)C(O)(C(=O)OC)C(C(=O)O)(O1)[C@H](OC(=O)/C=C/[C@@H](C)C[C@@H](C)CC)[C@H]2O)[C@@H](OC(C)=O)[C@H](C)Cc1ccccc1` (some centres undefined) yielded a median effective dose (ED50) in experiment [2] of 20 mg/kg.
In experiment [1], `C=C(CCC12OC(C(=O)OCCC(C)C)C(O)(C(=O)OCc3ccccc3)C(C(=O)O)(O1)[C@H](OC(=O)/C=C/[C@@H](C)C[C@@H](C)CC)[C@H]2O)[C@@H](OC(C)=O)[C@H](C)Cc1ccccc1` (some centres undefined) returned an inhibition in vivo at 24 mg/kg of 50%.
`C=C(CCC12OC(C(=O)OCCC(C)C)C(O)(C(=O)OCC(=O)N(C)C)C(C(=O)O)(O1)[C@H](OC(=O)/C=C/[C@@H](C)C[C@@H](C)CC)[C@H]2O)[C@@H](OC(C)=O)[C@H](C)Cc1ccccc1` (some centres undefined) registered an inhibition in vivo at 24 mg/kg in experiment [1] of 12%.
With `C=C(CCC12OC(C(=O)OCCC(C)C)C(O)(C(=O)OCCOC)C(C(=O)O)(O1)[C@H](OC(=O)/C=C/[C@@H](C)C[C@@H](C)CC)[C@H]2O)[C@@H](OC(C)=O)[C@H](C)Cc1ccccc1` (some centres undefined), in experiment [1], testing at 24 mg/kg gave an inhibition in vivo of 55%.
In the case of `C=CCOC(=O)C12OC(CCC(=C)[C@@H](OC(C)=O)[C@H](C)Cc3ccccc3)(OC(C(=O)OCCC(C)C)C1(O)C(=O)O)[C@H](O)[C@H]2OC(=O)/C=C/[C@@H](C)C[C@@H](C)CC` (some centres undefined), the inhibition entry in experiment [4] was “inactive”.
On the same count and under the same terms, next, `C=C(CCC12OC(C(=O)OCCC(C)C)C(O)(C(=O)OCC(=O)OC(C)(C)C)C(C(=O)O)(O1)[C@H](OC(=O)/C=C/[C@@H](C)C[C@@H](C)CC)[C@H]2O)[C@@H](OC(C)=O)[C@H](C)Cc1ccccc1` (some centres undefined): “inactive”; `C=C(CCC12OC(C(=O)OCCC(C)C)C(O)(C(=O)O)C(C(=O)OC)(O1)[C@H](OC(=O)/C=C/[C@@H](C)C[C@@H](C)CC)[C@H]2O)[C@@H](OC(C)=O)[C@H](C)Cc1ccccc1` (some centres undefined): “inactive”.
As for `C=C(CCC12OC(C(=O)OCCC(C)C)C(O)(C(=O)OCC(=O)OC)C(C(=O)O)(O1)[C@H](OC(=O)/C=C/[C@@H](C)C[C@@H](C)CC)[C@H]2O)[C@@H](OC(C)=O)[C@H](C)Cc1ccccc1` (some centres undefined), the inhibition in vivo at 24 mg/kg in experiment [1] stood at 43%.
Turning to `C=C(CCC12OC(C(=O)OCCC(C)C)C(O)(C(=O)OCOC(=O)C(C)(C)C)C(C(=O)O)(O1)[C@H](OC(=O)/C=C/[C@@H](C)C[C@@H](C)CC)[C@H]2O)[C@@H](OC(C)=O)[C@H](C)Cc1ccccc1` (some centres undefined), the 50% effective dose (ED50) in experiment [2] turned out to be 9 mg/kg.
Molecule `C=C(CCC12OC(C(=O)OCCC(C)C)C(O)(C(=O)OCCCCCCCC)C(C(=O)O)(O1)[C@H](OC(=O)/C=C/[C@@H](C)C[C@@H](C)CC)[C@H]2O)[C@@H](OC(C)=O)[C@H](C)Cc1ccccc1` (some centres undefined) displayed an inhibition in vivo at 24 mg/kg in experiment [1] of 5%.
